Measured values: ChEMBL document CHEMBL5724696, “Autophagy assay results for EUbOPEN Chemogenomics Library” (2024)

Assays:
Format in all cases: functional, Homo sapiens
[1] = test system: U2OS; test: (§1) Here: values are normalized to the negative (DMSO; defined as 0% autophagy induction) and positive (250nM Torin1; mTOR inhibitor; defined as maximal inducer of autophagy = 100%) control compounds and represented as % of autophagy induction. […] The impact of autophagy induction on cells is complex and depends on the affected target. As such, the magnitude of a phenotype may not be equally mirrored in the %-value of autophagy induction and vice versa. The dynamics of the induction may indicate the mode of activation: e.g. activation via phosphorylation or a signaling cascade may occur fast, while activation via transcription factors may take considerably longer. […] Of note, treatment concentrations may be sub-optimal for specific compounds, leading to false negative annotations.; details: Culturing Media DMEM, 1 % Penicillin/Streptomycin, 10% Fetal bovin serum Add-On: No, Screening Media Control DMEM, Screening Media Samples DMEM
[2] = test system: TERT-RPE1; test: as §1; details: Culturing Media DMEM/F12 (1:1), 1 % Penicillin/Streptomycin, 10% Fetal bovin serum Add-On: No, Screening Media Control DMEM/F12 (1:1), Screening Media Samples DMEM/F12 (1:1)
[3] = test system: U2OS; test: as §1; details: Culturing Media DMEM, 1 % Penicillin/Streptomycin, 10% Fetal bovin serum Add-On: No, Screening Media Control DMEM, Screening Media Samples DMEM; remark: listed apart in the source
[4] = Compound Concentration 0.5 uM, Timepoint 12 hours
[5] = Compound Concentration 0.5 uM, Timepoint 24 hours
[6] = Compound Concentration 0.5 uM, Timepoint 36 hours
[7] = Compound Concentration 0.5 uM, Timepoint 60 hours
[8] = Compound Concentration 2 uM, Timepoint 12 hours
[9] = Compound Concentration 2 uM, Timepoint 24 hours
[10] = Compound Concentration 2 uM, Timepoint 36 hours
[11] = Compound Concentration 2 uM, Timepoint 60 hours
[12] = Compound Concentration 10 uM, Timepoint 12 hours
[13] = Compound Concentration 10 uM, Timepoint 24 hours
[14] = Compound Concentration 10 uM, Timepoint 36 hours
[15] = Compound Concentration 10 uM, Timepoint 60 hours

| Structure (SMILES) | autophagy induction [1, 4] [%] | autophagy induction [1, 5] [%] | autophagy induction [1, 6] [%] | autophagy induction [1, 7] [%] | autophagy induction [1, 8] [%] | autophagy induction [1, 9] [%] | autophagy induction [1, 10] [%] | autophagy induction [1, 11] [%] | autophagy induction [1, 12] [%] | autophagy induction [1, 13] [%] | autophagy induction [1, 14] [%] | autophagy induction [1, 15] [%] | autophagy induction [2, 4] [%] | autophagy induction [2, 5] [%] | autophagy induction [2, 6] [%] | autophagy induction [2, 7] [%] | autophagy induction [2, 8] [%] | autophagy induction [2, 9] [%] | autophagy induction [2, 10] [%] | autophagy induction [2, 11] [%] | further results |
| --- | --- | --- | --- | --- | --- | --- | --- | --- | --- | --- | --- | --- | --- | --- | --- | --- | --- | --- | --- | --- | --- |
| O=C(Nc1ccc(Cl)cc1)Nc1cccc(-c2cccc(N3CCCC3)n2)c1 | 17.3616 | 17.7757 | 11.2699 | 1.747 | 20.6353 | 15.806 | 8.553 | 8.133 | -2.269 | 13.0876 | 22.7984 | 31.1337 | -4.744 | -3.44 | 1.901 | 11.3473 | -2.257 | -2.102 | -2.6063 | -0.1832 | autophagy induction [2, 12]: -0.5349%; autophagy induction [2, 13]: 20.6675%; autophagy induction [2, 14]: 44.4615%; autophagy induction [2, 15]: 64.0305%; autophagy induction [3, 4]: 3.433%; autophagy induction [3, 5]: -0.7352%; autophagy induction [3, 6]: -0.9133%; autophagy induction [3, 7]: -1.608%; autophagy induction [3, 8]: -0.4509%; autophagy induction [3, 9]: -1.587%; autophagy induction [3, 10]: -2.698%; autophagy induction [3, 11]: -2.799%; autophagy induction [3, 12]: -2.177%; autophagy induction [3, 13]: -0.7353%; autophagy induction [3, 14]: -4.281%; autophagy induction [3, 15]: 0.461% |
| Cc1c(C2=CCN(C(=O)N(C)C(C)C)CC2)nnn1-c1cccnc1F | 23.3711 | 12.0378 | 26.6789 | 23.6658 | -5.386 | -5.642 | -9.747 | -4.534 | -2.977 | 0.8858 | -1.59 | 4.327 | -7.351 | -10.2554 | -12.7414 | -13.7381 | -4.799 | -6.124 | -8.583 | -9.595 | autophagy induction [2, 12]: -1.3221%; autophagy induction [2, 13]: -2.795%; autophagy induction [2, 14]: -0.6234%; autophagy induction [2, 15]: 3.817%; autophagy induction [3, 4]: 2.838%; autophagy induction [3, 5]: 0.05909%; autophagy induction [3, 6]: -0.5317%; autophagy induction [3, 7]: -0.9964%; autophagy induction [3, 8]: -1.633%; autophagy induction [3, 9]: -1.565%; autophagy induction [3, 10]: -0.7182%; autophagy induction [3, 11]: -1.565%; autophagy induction [3, 12]: 1.202%; autophagy induction [3, 13]: 0.8484%; autophagy induction [3, 14]: 0.458%; autophagy induction [3, 15]: -1.904% |
| Cc1cc(C)cc(C(=O)N(C)[C@H](Cc2ccc(-c3ccccc3)cc2)C(=O)N[C@@H](Cc2c[nH]c3ccccc23)C(=O)O)c1 | 20.0451 | 13.0827 | 8.17 | 4.398 | 5.392 | 1.718 | -3.298 | -11.258 | 17.6344 | 16.7447 | 13.7232 | 11.2064 | -14.7352 | -10.2057 | -9.628 | -6.49 | -8.48 | -8.155 | -8.294 | -6.276 | autophagy induction [2, 12]: -5.809%; autophagy induction [2, 13]: -2.795%; autophagy induction [2, 14]: -2.603%; autophagy induction [2, 15]: -5.126%; autophagy induction [3, 4]: -3.328%; autophagy induction [3, 5]: -1.823%; autophagy induction [3, 6]: -2.116%; autophagy induction [3, 7]: -0.69%; autophagy induction [3, 8]: 4.263%; autophagy induction [3, 9]: 2.513%; autophagy induction [3, 10]: -0.01148%; autophagy induction [3, 11]: -0.5825%; autophagy induction [3, 12]: 3.263%; autophagy induction [3, 13]: 3.281%; autophagy induction [3, 14]: 1.189%; autophagy induction [3, 15]: 0.3614% |
